# PubChem BioAssay (NCI)
#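 Briefly, cells in 96-well plates were exposed to five compound concentrations for 48 h, and endpoints were estimated by linear interpolation. GI50 = concentration required for 50% inhibition of growth. TGI: concentration producing complete growth inhibition.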
# What was measured:
# Assay in all cases: inhibition of tumour cell growth, NCI panel, 48 h
# [1] = tested on: RXF 393 renal
# [2] = tested on: HOP-62 NSCLC
# [3] = tested on: IGROV1 ovarian
# [4] = tested on: DU-145 prostate
# [5] = tested on: MCF7 breast
# [6] = tested on: KM12 colon
# [7] = tested on: UACC-62 melanoma
# [8] = tested on: BT-549 breast
# [9] = tested on: UO-31 renal
# [10] = tested on: A549 NSCLC
# [11] = tested on: SF-268 CNS
# [12] = tested on: NCI-H522 lung
# [13] = tested on: 786-0 renal
# [14] = tested on: SF-539 CNS
# [15] = tested on: EKVX NSCLC
# [16] = tested on: OVCAR-8 ovarian
# [17] = tested on: SNB-75 CNS
# [18] = tested on: SF-295 CNS
# [19] = tested on: OVCAR-3 ovarian
# [20] = tested on: ACHN renal
# [21] = tested on: CCRF-CEM leukemia
# [22] = tested on: SK-MEL-2 melanoma
# [23] = tested on: RPMI-8226 leukemia
# [24] = tested on: SN12C renal
# [25] = tested on: HCT-15 colon
# [26] = tested on: SK-MEL-5 melanoma
# [27] = tested on: K-562 leukemia
# [28] = tested on: U251 CNS
# [29] = tested on: MALME-3M melanoma
# [30] = tested on: M14 melanoma
# [31] = tested on: TK-10 renal
# [32] = tested on: NCI-H23 lung
# [33] = tested on: SK-OV-3 ovarian
# [34] = tested on: SK-MEL-28 melanoma
# [35] = tested on: HOP-92 NSCLC
# [36] = tested on: NCI-H226 lung
# [37] = tested on: HL-60(TB) leukemia
# [38] = tested on: NCI-H460 lung
# [39] = tested on: MDA-MB-468 breast
# [40] = tested on: SR leukemia
# [41] = tested on: A498 renal
# [42] = tested on: HCC-2998 colon
# [43] = tested on: NCI/ADR-RES ovarian
# [44] = tested on: MDA-MB-231 breast
# [45] = tested on: CAKI-1 renal
# [46] = tested on: LOX IMVI melanoma
# [47] = tested on: T-47D breast
# [48] = tested on: OVCAR-5 ovarian
# [49] = tested on: UACC-257 melanoma
# [50] = tested on: HT29 colon
# [51] = tested on: OVCAR-4 ovarian
# [52] = tested on: SNB-19 CNS
# [53] = tested on: COLO 205 colon
# [54] = tested on: HS 578T breast
# [55] = tested on: MOLT-4 leukemia
# [56] = tested on: HCT-116 colon
# [57] = tested on: PC-3 prostate
# [58] = tested on: SW-620 colon
# [59] = tested on: MDA-MB-435
compound,measurement,setting,value
CCN1CCN(c2ccc(NC(=O)Nc3ccc(-c4cc(C(=O)NC)c5ncccc5n4)cc3)cc2C(F)(F)F)CC1,GI50,[1],494 nM
same,TGI,[1],1660 nM
same,GI50,[2],2790 nM
same,TGI,[2],5410 nM
same,GI50,[3],3010 nM
same,TGI,[3],5610 nM
same,GI50,[4],2230 nM
same,TGI,[4],4900 nM
same,GI50,[5],293 nM
same,TGI,[5],608 nM
same,GI50,[6],3250 nM
same,TGI,[6],6650 nM
same,GI50,[7],3060 nM
same,TGI,[7],5660 nM
same,GI50,[8],2780 nM
same,TGI,[8],5670 nM
same,GI50,[9],2710 nM
same,TGI,[9],5140 nM
same,GI50,[10],466 nM
same,TGI,[10],1300 nM
same,GI50,[11],3090 nM
same,TGI,[11],7000 nM
same,GI50,[12],3230 nM
same,TGI,[12],6400 nM
same,GI50,[13],295 nM
same,TGI,[13],583 nM
same,GI50,[14],2300 nM
same,TGI,[14],4570 nM
same,GI50,[15],2940 nM
same,TGI,[15],5630 nM
same,GI50,[16],3850 nM
same,TGI,[16],10500 nM
same,GI50,[17],842 nM
same,TGI,[17],3820 nM
same,GI50,[18],2050 nM
same,TGI,[18],4470 nM
same,GI50,[19],2550 nM
same,TGI,[19],5060 nM
same,GI50,[20],2390 nM
same,TGI,[20],4730 nM
same,GI50,[21],461 nM
same,TGI,[21],1270 nM
same,GI50,[22],9870 nM
same,TGI,[22],> 18000 nM
same,GI50,[23],3050 nM
same,TGI,[23],> 18000 nM
same,GI50,[24],2770 nM
same,TGI,[24],5300 nM
same,GI50,[25],333 nM
same,TGI,[25],697 nM
same,GI50,[26],2050 nM
same,TGI,[26],4260 nM
same,GI50,[27],657 nM
same,TGI,[27],> 18000 nM
same,GI50,[28],2700 nM
same,TGI,[28],5530 nM
same,GI50,[29],286 nM
same,TGI,[29],532 nM
same,GI50,[30],400 nM
same,TGI,[30],1050 nM
same,GI50,[31],3860 nM
same,TGI,[31],6630 nM
same,GI50,[32],2680 nM
same,TGI,[32],5680 nM
same,GI50,[33],3480 nM
same,TGI,[33],7500 nM
same,GI50,[34],322 nM
same,TGI,[34],582 nM
same,GI50,[35],2450 nM
same,TGI,[35],5670 nM
same,GI50,[36],2700 nM
same,TGI,[36],6360 nM
same,GI50,[37],3420 nM
same,TGI,[37],> 18000 nM
same,GI50,[38],664 nM
same,TGI,[38],2920 nM
same,GI50,[39],2480 nM
same,TGI,[39],5030 nM
same,GI50,[40],670 nM
same,TGI,[40],> 18000 nM
same,GI50,[41],2740 nM
same,TGI,[41],5310 nM
same,GI50,[42],2830 nM
same,TGI,[42],5310 nM
same,GI50,[43],1780 nM
same,TGI,[43],8090 nM
same,GI50,[44],2780 nM
same,TGI,[44],5250 nM
same,GI50,[45],3010 nM
same,TGI,[45],5600 nM
same,GI50,[46],674 nM
same,TGI,[46],2660 nM
same,GI50,[47],3720 nM
same,TGI,[47],> 18000 nM
same,GI50,[48],2820 nM
same,TGI,[48],5230 nM
same,GI50,[49],3050 nM
same,TGI,[49],6000 nM
same,GI50,[50],525 nM
same,TGI,[50],2110 nM
same,GI50,[51],2630 nM
same,TGI,[51],5640 nM
same,GI50,[52],2970 nM
same,TGI,[52],5480 nM
same,GI50,[53],4150 nM
same,TGI,[53],14200 nM
same,GI50,[54],2390 nM
same,TGI,[54],6880 nM
same,GI50,[55],689 nM
same,TGI,[55],> 18000 nM
same,GI50,[56],1120 nM
same,TGI,[56],4830 nM
same,GI50,[57],2880 nM
same,TGI,[57],6030 nM
same,GI50,[58],314 nM
same,TGI,[58],621 nM
same,GI50,[59],269 nM
same,TGI,[59],564 nM
